According to patent publication US20250144130A1, “POLYSACCHARIDE COMPOUND WITH A DEFINED MOLECULAR STRUCTURE THAT CAN ELIMINATE THE TOXIC SIDE EFFECTS OF CHEMOTHERAPY DRUGS” (priority 2023, published 2025):
Marks after values point to notes of the source that are not given here.

What was measured:
[1] = Histopathological examination of liver, spleen and thymus in orthotopic H22-bearing mice; format: in vivo, C57 mice; details: radiotherapy 2 Gy/d + cisplatin 4 mg/kg ip q3d
Excerpt: Liver cancer (H22) cells, labeled with Luc fluorescent marker at a concentration of 1×10^7 cells/mL, were initially inoculated into the peritoneal cavity of 8 male C57 mice. After the development of ascites, the ascitic fluid was aseptically extracted, washed with HBSS buffer, centrifuged to discard the supernatant, and stained with Trypan Blue, and cells in the ascitic fluid were counted under a microscope. The cell concentration was adjusted to […] with HBSS buffer and inoculated into the right hepatic region of 80 male C57 mice, at a volume of 10 μL per mouse, to prepare the orthotopic tumor-bearing mice. One week later, the liver tumor formation in mice was detected using a small animal in vivo imaging system. […] An additional 10 mice served as the normal control group. Except for the normal control group, all other animals underwent radiotherapy using an animal radiotherapy instrument. The animals were anesthetized, placed in homemade lead clothing, and the tumor tissue was exposed for radiation treatment at an intensity of 2 Gy/day for 5 consecutive days. The normal control group and the model control group were administered pure water by oral gavage. […] After the last dose, blood was collected from the orbital plexus to test blood WBC, RBC, liver and kidney function indicators (ALT, AST, BUN, CRE), and CD3^+/CD4^+, CD3^+/CD8^+ ratios. […]

[2] = Mortality, body weight, spleen and thymus indices in H22-bearing mice; format: in vivo, C57 mice; details: sc H22 mice, cisplatin 3 mg/kg ip q3d
Description: A homogenate suspension of H22 hepatoma solid tumors was injected subcutaneously under the axilla of 50 healthy male C57 mice to create a solid tumor model. Once all mouse tumors averaged a volume of about 200 mm^3, mice were randomized into groups based on tumor volume and were administered the respective drugs or drug solvents via oral gavage or intraperitoneal injection for 22 consecutive days. Longest and shortest diameters of tumors were measured every three days to calculate tumor volume, and mouse weights were recorded every three days. At the end of the experiment, tumors, spleens, and thymuses were harvested and weighed to calculate tumor, spleen, and thymus indices.
(§1) Spleen and thymus organ coefficients: After the last dose, spleen, thymus, and tumor weights are measured, and organ coefficients are calculated.
(§2) Immune organ index (mg/g)=(organ mass/body weight)×1000.

[3] = test system: lymphocyte subtypes CD3^+/CD4^+ and CD3^+/CD8^+; assay: Blood CD3+/CD4+ and CD3+/CD8+ ratios by flow cytometry in orthotopic H22-bearing mice; format: in vivo, C57 mice; details: radiotherapy 2 Gy/d + cisplatin 4 mg/kg ip q3d, after the last dose, Mean ± SEM
Description: CD4^+ and CD8^+ content measurement: After the last dose, lymphocyte subtypes CD3^+/CD4^+ and CD3^+/CD8^+ in the blood were measured using flow cytometry.

LLC-bearing mice = assay: Antitumor effect of GLP-3 combined with chemotherapy on LLC-bearing mice (tumor volume, inhibition rates, tumor index); format: in vivo, C57 mice; details: cisplatin 4 mg/kg ip q3d
Description: Healthy LLC cells were inoculated subcutaneously into the left shoulder of 5 healthy male C57 mice. […] This suspension was then injected subcutaneously into the axilla of 60 healthy male C57 mice to establish a solid tumor model. […] Longest and shortest diameters of tumors were measured every three days to calculate tumor volume, and mouse weights were recorded every three days. At the end of the experiment, tumors, spleens, and thymuses were harvested and weighed to calculate tumor, spleen, and thymus indices. […] [table] […] Where TRTV is the relative tumor volume in the experimental group, and CRTV is the relative tumor volume in the model control group. Relative tumor volume (RTV)=Vt/V0, where Vt is the tumor volume on day t of dosing, and V0 is the tumor volume at the time of grouping. Evaluation criteria: […] Where T represents the average tumor weight in the treatment group, and C represents the average tumor weight in the model control group. Evaluation criteria: […] Tumor index (%)=(tumor weight/body weight)×100%.

[4] = test system: orthotopic H22-bearing mice; assay: Tumor by small animal in vivo imaging, GLP-3 combined with radiotherapy, orthotopic H22-bearing mice; parameters: species or system C57 mice; details: radiotherapy 2 Gy/d + cisplatin 4 mg/kg ip q3d
Description: This study used the proposed clinical dose as a basis for the experiment. The radiotherapy intensity for this study was designed to be 2 Gy per day. [table] Tumor volume measurement: Tumor volume changes were measured weekly using small animal in vivo imaging technology.

H22-bearing mice = assay: Antitumor effect of GLP-3 combined with chemotherapy on H22-bearing mice (tumor volume, inhibition rates, tumor index); format: in vivo, C57 mice; details: sc H22 mice, cisplatin 3 mg/kg ip q3d
Description: Longest and shortest diameters of tumors were measured every three days to calculate tumor volume, and mouse weights were recorded every three days. At the end of the experiment, tumors, spleens, and thymuses were harvested and weighed to calculate tumor, spleen, and thymus indices. […] [table] […] Where TRTV is the relative tumor volume in the experimental group, and CRTV is the relative tumor volume in the model control group. Relative tumor volume (RTV)=Vt/V0, where Vt is the tumor volume on day t of dosing, and V0 is the tumor volume at the time of grouping. Evaluation criteria: […] Where T represents the average tumor weight in the treatment group, and C represents the average tumor weight in the model control group. Evaluation criteria: […] Tumor index (%)=(tumor weight/body weight)×100%.

[5] = Mortality, body weight and organ coefficients in orthotopic H22-bearing mice; details: radiotherapy 2 Gy/d + cisplatin 4 mg/kg ip q3d
Excerpt: Liver cancer (H22) cells, labeled with Luc fluorescent marker at a concentration of 1×10^7 cells/mL, were initially inoculated into the peritoneal cavity of 8 male C57 mice. After the development of ascites, the ascitic fluid was aseptically extracted, washed with HBSS buffer, centrifuged to discard the supernatant, and stained with Trypan Blue, and cells in the ascitic fluid were counted under a microscope. The cell concentration was adjusted to […] with HBSS buffer and inoculated into the right hepatic region of 80 male C57 mice, at a volume of 10 μL per mouse, to prepare the orthotopic tumor-bearing mice. One week later, the liver tumor formation in mice was detected using a small animal in vivo imaging system. […] An additional 10 mice served as the normal control group. Except for the normal control group, all other animals underwent radiotherapy using an animal radiotherapy instrument. The animals were anesthetized, placed in homemade lead clothing, and the tumor tissue was exposed for radiation treatment at an intensity of 2 Gy/day for 5 consecutive days. The normal control group and the model control group were administered pure water by oral gavage. […] After the last dose, blood was collected from the orbital plexus to test blood WBC, RBC, liver and kidney function indicators (ALT, AST, BUN, CRE), and CD3^+/CD4^+, CD3^+/CD8^+ ratios. The spleen, thymus, and tumors were weighed to calculate organ coefficients, and the liver, spleen, and thymus underwent histopathological examination.
Animal survival and general condition: Weight was recorded weekly, along with any deaths among the animals.
Immune organs: The thymus, spleen, tumor, and liver were weighed, and organ coefficients were calculated as follows: organ coefficient (%)=organ weight/fasting body weight×100%.

[6] = Mortality, body weight, spleen and thymus indices in LLC-bearing mice; format: in vivo, C57 mice; details: cisplatin 4 mg/kg ip q3d
Description: Healthy LLC cells were inoculated subcutaneously into the left shoulder of 5 healthy male C57 mice. Once tumors reached a volume of 2,000-3,000 mm^3, they were harvested and homogenized to prepare a homogenate suspension. This suspension was then injected subcutaneously into the axilla of 60 healthy male C57 mice to establish a solid tumor model. Once all mouse tumors averaged a volume of about 150 mm^3, mice were randomized into groups based on tumor volume and were administered the respective drugs or drug solvents via oral gavage or intraperitoneal injection for 19 consecutive days. Longest and shortest diameters of tumors were measured every three days to calculate tumor volume, and mouse weights were recorded every three days. At the end of the experiment, tumors, spleens, and thymuses were harvested and weighed to calculate tumor, spleen, and thymus indices.
as §1, §2

[7] = after the last dose, Mean ± SEM

N.N.[Cl][Pt][Cl] [Cisplatin]
Histopathology of liver, spleen and thymus [1]: extensive H22 cell infiltration and necrosis were observed along with increased extramedullary hematopoiesis in the spleen and a decreased number of white pulp cells, with a reduction in thymic lymphocyte counts | Mortality rate ([2]; 22 days): 0.0% | Number of deaths ([2]; 22 days): 0 | Survival time ([2]; 22 days): 22 ± 0 days | Weight ([2]; D0): 18.9 ± 0.8^+ g | Weight ([2]; D3): 19.9 ± 0.7 g | Weight ([2]; D6): 19.5 ± 0.6^+ g | Weight ([2]; D9): 19.6 ± 0.8 g | Weight ([2]; D12): 19.5 ± 0.8^+ g | Weight ([2]; D15): 19.2 ± 0.7^+ g | Weight ([2]; D18): 18.5 ± 0.9^+ g | Spleen index ([2]; after the last dose): 3.4 ± 0.3^+ mg/g | Thymus index ([2]; after the last dose): 0.6 ± 0.1 mg/g | CD3^+/CD4^+ [3]: 23.05 ± 12.70 | CD3^+/CD8^+ [3]: 126.56 ± 67.07 | Tumor volume (LLC-bearing mice; D0): 137.9 ± 50^ mm^3 | Relative tumor growth inhibition rate (compared to model control group) (LLC-bearing mice; D3): 4.3% | Tumor volume (LLC-bearing mice; D3): 300.1 ± 102.7 mm^3 | Relative tumor growth inhibition rate (compared to model control group) (LLC-bearing mice; D6): 30.0% | Tumor volume (LLC-bearing mice; D6): 486.6 ± 188.9 mm^3 | Relative tumor growth inhibition rate (compared to model control group) (LLC-bearing mice; D9): 54.6^+ % | Tumor volume (LLC-bearing mice; D9): 771.3 ± 256^+ mm^3 | Relative tumor growth inhibition rate (compared to model control group) (LLC-bearing mice; D9, listed as cisplatin): 54.6% | Relative tumor growth inhibition rate (compared to model control group) (LLC-bearing mice; D12): 63.8^+ % | Tumor volume (LLC-bearing mice; D12): 1173.9 ± 488.8^+ mm^3 | Relative tumor growth inhibition rate (compared to model control group) (LLC-bearing mice; D12, listed as cisplatin): 63.8% | Relative tumor growth inhibition rate (compared to model control group) (LLC-bearing mice; D15): 77.3^+ % | Tumor volume (LLC-bearing mice; D15): 1409.5 ± 820.5^+ mm^3 | Relative tumor growth inhibition rate (compared to model control group) (LLC-bearing mice; D15, listed as cisplatin): 77.3% | Relative tumor growth inhibition rate (compared to model control group) (LLC-bearing mice; D19): 79.5^+ % | Tumor volume (LLC-bearing mice; D19): 1771.9 ± 1091.6^+ mm^3 | Relative tumor growth inhibition rate (compared to model control group) (LLC-bearing mice; D19, listed as cisplatin): 79.5% | Tumor index (LLC-bearing mice; after the last dose): 9.09 ± 4.19^+ % | Tumor growth inhibition rate vs. the model control group (LLC-bearing mice; by average tumor weight): 74.4% | Tumor ([4]; W 0, Mean ± SEM): 766250 ± 515323 | Tumor ([4]; W 1, Mean ± SEM): 5188000 ± 2224171 | Tumor volume (H22-bearing mice; D0): 188.2 ± 48.7 mm^3 | Relative tumor growth inhibition rate (compared to model control group) (H22-bearing mice; D3): 11.7% | Tumor volume (H22-bearing mice; D3): 338.6 ± 69.1 mm^3 | Relative tumor growth inhibition rate (compared to model control group) (H22-bearing mice; D6): 19.5% | Tumor volume (H22-bearing mice; D6): 356.9 ± 77.9 mm^3 | Relative tumor growth inhibition rate (compared to model control group) (H22-bearing mice; D9): 53.1^+ % | Tumor volume (H22-bearing mice; D9): 598.5 ± 219.2^+ mm^3 | Relative tumor growth inhibition rate (compared to model control group) (H22-bearing mice; D9, listed as cisplatin): 53.1% | Relative tumor growth inhibition rate (compared to model control group) (H22-bearing mice; D12): 64.4^+ % | Relative tumor growth inhibition rate (compared to model control group) (H22-bearing mice; D12, listed as cisplatin): 64.4% | Relative tumor growth inhibition rate (compared to model control group) (H22-bearing mice; D15): 73.1^+ % | Tumor volume (H22-bearing mice; D15): 900.4 ± 376.4^+ mm^3 | Relative tumor growth inhibition rate (compared to model control group) (H22-bearing mice; D15, listed as cisplatin): 73.1% | Relative tumor growth inhibition rate (compared to model control group) (H22-bearing mice; D18): 71.6^+ % | Tumor volume (H22-bearing mice; D18): 1098.3 ± 397^+ mm^3 | Relative tumor growth inhibition rate (compared to model control group) (H22-bearing mice; D18, listed as cisplatin): 71.6% | Relative tumor growth inhibition rate (compared to model control group) (H22-bearing mice; D22): 75.0^+ % | Tumor volume (H22-bearing mice; D22): 1526.5 ± 535.7^+ mm^3 | Relative tumor growth inhibition rate (compared to model control group) (H22-bearing mice; D22, listed as cisplatin): 75.0% | Tumor index (H22-bearing mice; after the last dose): 6.6 ± 2.2^+ % | Tumor growth inhibition rate vs. the model control group (H22-bearing mice; by average tumor weight): 75.7% | Mortality rate ([5]; 14 days): 60% | Number of deaths ([5]; 14 days): 6 | Number of surviving animals ([5]; 14 days): 4 | Weight ([5]; W0, Mean ± SEM): 17.1 ± 0.4^++ g | Weight ([5]; W1, Mean ± SEM): 13.6 ± 0.9**^ g | Weight ([5]; W2, Mean ± SEM): 14.6 ± 1.0 g | Liver coefficient [5, 7]: 7.962 ± 0.914 % | Spleen coefficient [5, 7]: 0.424 ± 0.140 % | Thymus coefficient [5, 7]: 0.039 ± 0.017% | Mortality rate ([6]; 19 days): 0.0% | Number of deaths ([6]; 19 days): 0 | Survival time ([6]; 19 days): 19 ± 0 days | Weight ([6]; D0): 21.5 ± 1.3 g | Weight ([6]; D3): 20.9 ± 1.3^ g | Weight ([6]; D6): 20.4 ± 1.9^+ g | Weight ([6]; D9): 18.3 ± 2.6^+ g | Weight ([6]; D12): 18.6 ± 2.8^+ g | Weight ([6]; D15): 17.7 ± 2.7^+ g | Weight ([6]; D19): 16.8 ± 2.8^+ g | Spleen index ([6]; after the last dose): 2.84 ± 0.77^+ mg/g
